Data reported in US20240199640A1, “NEGATIVE ALLOSTERIC MODULATORS OF METABOTROPIC GLUTAMATE RECEPTOR 2” (priority 2021, published 2024).
Where “and” joins values, the source holds several entries; their conditions need not be identical. Equal values may be shown once.

Target: T1, rat mGlu2 (Rattus norvegicus, UniProt P31421)
T1 construct: expressed in transfected cells; host or cells: HEK-293
Experiment: mGlu GIRK cell-based thallium flux assay, rat mGlu2
Conditions: rat mGlu2 GIRK IC50 (nM), HEK-293 cells co-expressing rat mGlu2 and GIRK; EC80 glutamate; Tl flux
Procedure: The day before the assay, GIRK cells co-expressing human mGlu3, human or rat mGlu2, as described above, were plated in black-walled, clear-bottomed, amine-coated 384-well plates at a density of 15,000 cells/20 μL/well in the assay medium (glutamine-depleted basal DMEM supplemented with 10% dialyzed FBS, 20 mM HEPES, 1 mM sodium pyruvate). Cells were incubated at 37° C. in the presence of 5% CO2. […] Cells were washed with assay buffer using a microplate washer to remove the medium, resulting in 20 μL of buffer remaining in each well. Immediately, 20 μL of 2× Thallos dye solution was added to cells, and incubated for one hour at 25° C. During the cell dye loading incubation period, a 10-point concentration serial dilution of compound was created from a 10 mM DMSO compound stock by performing a 1:3 serial dilution in DMSO using the Bravo liquid handler. The 2× compound plate was generated by transferring 0.24 μL of the diluted compound in each well to a daughter plate using an Echo acoustic liquid handler.
After dye-loading, cell plates were washed with assay buffer to remove excess extracellular dye using a microplate washer, resulting in 20 μL of buffer remaining in each well. After a ten-minute equilibration period, cell, compound and agonist plates were loaded into a Hamamatsu μCell kinetic imaging plate reader equipped with liquid handler to monitor fluorescence changes at 480 nm excitation and 540 nm emission settings. Briefly, after collection of baseline fluorescence, 20 μL of compound was added and incubated for two minutes and twenty seconds. This is immediately followed by adding 10 μL of glutamate-thallium buffer to the wells containing compound. The fluorescent signal was monitored an additional 2.5 minutes after the glutamate addition. Multiple reference wells containing no compound received either no glutamate (for a baseline reference), […] glutamate, or ECmax glutamate (for normalization to maximum response). Fluorescence was measured throughout the experiment at a frequency of 1 measurement per every 2 seconds before the glutamate addition and a frequency of 1 measurement per every 1 second after the glutamate addition. Each compound concentration series occurred one time in each plate, and replicates from two or three plates were used in each experimental run. Thallium solutions were handled and disposed of according to guidelines from the Vanderbilt University Chemical Safety department.
Data were normalized using a static ratio function (F/F0) by dividing every fluorescent measurement by the initial fluorescent value for the corresponding well. The increase in signal resulting from the glutamate/thallium addition of the second add was measured by determining the slope from 3 seconds to 13 seconds after the addition. The average of all baseline slopes (no compound, no glutamate) was determined and this value was subtracted from all other slope values. The average of all ECmax slopes was determined and this value was used to normalize the baseline-corrected slopes to a percent max value (% Emax). The % Emax values for each compound series were plotted versus the log of the concentration and fit to a 4-parameter logistical equation with no fixed parameters.
Potency is reported as the IC50 resulting from the curve fit.

T1 sequence (P31421 19-872): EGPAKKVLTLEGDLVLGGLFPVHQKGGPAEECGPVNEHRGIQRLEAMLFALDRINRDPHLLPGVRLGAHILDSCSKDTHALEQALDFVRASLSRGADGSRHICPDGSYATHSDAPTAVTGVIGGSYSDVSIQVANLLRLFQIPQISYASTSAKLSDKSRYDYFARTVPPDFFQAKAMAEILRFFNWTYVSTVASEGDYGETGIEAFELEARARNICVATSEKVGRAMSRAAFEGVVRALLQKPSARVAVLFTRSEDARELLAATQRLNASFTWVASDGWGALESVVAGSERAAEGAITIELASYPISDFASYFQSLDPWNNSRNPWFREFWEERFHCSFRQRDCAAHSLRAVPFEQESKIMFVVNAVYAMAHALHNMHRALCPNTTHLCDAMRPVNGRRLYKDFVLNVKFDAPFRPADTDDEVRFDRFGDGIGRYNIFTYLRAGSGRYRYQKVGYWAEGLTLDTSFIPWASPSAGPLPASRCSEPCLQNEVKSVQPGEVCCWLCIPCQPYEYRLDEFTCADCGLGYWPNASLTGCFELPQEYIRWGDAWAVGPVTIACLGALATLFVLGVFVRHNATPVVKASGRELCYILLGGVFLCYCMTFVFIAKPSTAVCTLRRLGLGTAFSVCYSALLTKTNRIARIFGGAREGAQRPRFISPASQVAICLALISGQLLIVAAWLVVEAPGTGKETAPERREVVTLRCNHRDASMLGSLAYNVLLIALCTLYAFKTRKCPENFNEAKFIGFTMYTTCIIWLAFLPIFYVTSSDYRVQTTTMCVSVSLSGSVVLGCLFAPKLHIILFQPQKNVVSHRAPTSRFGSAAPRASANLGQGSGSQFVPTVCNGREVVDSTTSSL

Compound	IC50
CC(Oc1cc2c(cc1-c1ccc(OC(F)(F)F)cc1)C(=O)NC2)c1ccncc1 (stereo not drawn) [Compound 39, 5-(1-(pyridin-4-yl)ethoxy)-6-(4-(trifluoromethoxy)phenyl)isoindolin-1-one]	> 10000 nM
O=C1NCc2cc(OC3CN(Cc4ccc(C(F)(F)F)o4)C3)c(-c3ccc(F)cc3)cc21 [Compound 81, 6-(4-fluorophenyl)-5-((1-((5-(trifluoromethyl)furan-2-yl)methyl)azetidin-3-yl)oxy)isoindolin-1-one]	1670 nM
CC(Oc1cc2c(cc1-c1ccc(OC(F)F)cc1F)C(=O)NC2)c1ccncc1 (stereo not drawn) [Compound 37, 6-(4-(difluoromethoxy)-2-fluorophenyl)-5-(1-(pyridin-4-yl)ethoxy)isoindolin-1-one]	781 nM
Cc1ncc(COc2cc3c(cc2-c2ccc(F)cc2)C(=O)NC3)s1 [Compound 26, 6-(4-fluorophenyl)-5-((2-methylthiazol-5-yl)methoxy)isoindolin-1-one]	92 nM
O=C1NCc2cc(OC3CN(c4ccncc4)C3)c(-c3ccc(F)cc3)cc21 [Compound 33, 6-(4-fluorophenyl)-5-((1-(pyridin-4-yl)azetidin-3-yl)oxy)isoindolin-1-one]	> 10000 nM
O=C1NCc2cc(Oc3ccncc3)c(-c3ccc(F)cc3)cc21 [Compound 31, 6-(4-fluorophenyl)-5-(pyridin-4-yloxy)isoindolin-1-one]	1160 nM
Cc1c(S(=O)(=O)N2CC(Oc3cc4c(cc3-c3ccc(F)cc3)C(=O)NC4)C2)cnn1C(F)F [Compound 73, 5-((1-((1-(difluoromethyl)-5-methyl-1H-pyrazol-4-yl)sulfonyl)azetidin-3-yl)oxy)-6-(4-fluorophenyl)isoindolin-1-one]	8040 nM
CC(Oc1cc2c(cc1-c1ccc(F)cc1)C(=O)NC2)c1ccncc1 (stereo not drawn) [Compound 27, 6-(4-fluorophenyl)-5-(1-(pyridin-4-yl)ethoxy)isoindolin-1-one]	321 nM
O=C1NCc2cc(OC3CN(Cc4ccc5ncccc5c4)C3)c(-c3ccc(F)cc3)cc21 [Compound 83, 6-(4-fluorophenyl)-5-((1-(quinolin-6-ylmethyl)azetidin-3-yl)oxy)isoindolin-1-one]	5000 nM
Cn1ccc(COc2cc3c(cc2-c2ccc(F)nc2)C(=O)NC3)n1 [Compound 44, 6-(6-fluoropyridin-3-yl)-5-((1-methyl-1H-pyrazol-3-yl)methoxy)isoindolin-1-one]	1840 nM
Cc1cc(-c2cc3c(cc2OCc2ccn(C)n2)CNC3=O)n(C)n1 [Compound 48, 6-(1,3-dimethyl-1H-pyrazol-5-yl)-5-((1-methyl-1H-pyrazol-3-yl)methoxy)isoindolin-1-one]	> 10000 nM
Cc1nocc1S(=O)(=O)N1CC(Oc2cc3c(cc2-c2ccc(F)cc2)C(=O)NC3)C1 [Compound 74, 6-(4-fluorophenyl)-5-((1-((3-methylisoxazol-4-yl)sulfonyl)azetidin-3-yl)oxy)isoindolin-1-one]	> 10000 nM
Cc1ncc(S(=O)(=O)N2CC(Oc3cc4c(cc3-c3ccc(F)cc3)C(=O)NC4)C2)s1 [Compound 72, 6-(4-fluorophenyl)-5-((1-((2-methylthiazol-5-yl)sulfonyl)azetidin-3-yl)oxy)isoindolin-1-one]	2140 nM
CC(Oc1cc2c(cc1-c1ccc(F)cc1F)C(=O)NC2)c1ccncc1 (stereo not drawn) [Compound 28, 6-(2,4-difluorophenyl)-5-(1-(pyridin-4-yl)ethoxy)isoindolin-1-one]	305 nM
[2H]C1([2H])NC(=O)c2cc(-c3ccc(F)cc3)c(OC([2H])([2H])c3cnn(C)c3)cc21 [Compound 34, 6-(4-fluorophenyl)-5-((1-methyl-1H-pyrazol-4-yl)methoxy-d2)isoindolin-1-one-3,3-d2]	836 nM
Cn1ccc(COc2cc3c(cc2-c2ccc4ncsc4c2)C(=O)NC3)n1 [Compound 52, 6-(benzo[d]thiazol-6-yl)-5-((1-methyl-1H-pyrazol-3-yl)methoxy)isoindolin-1-one]	675 nM
N#Cc1cccc(C(=O)N2CC(Oc3cc4c(cc3-c3ccc(F)cc3)C(=O)NC4)C2)c1 [Compound 70, 3-(3-((6-(4-fluorophenyl)-1-oxoisoindolin-5-yl)oxy)azetidine-1-carbonyl)benzonitrile]	4780 nM and > 30000 nM

Compound	IC50
Cn1cc(-c2cc3c(cc2OCc2ccn(C)n2)CNC3=O)cn1 [Compound 46, 5-((1-methyl-1H-pyrazol-3-yl)methoxy)-6-(1-methyl-1H-pyrazol-4-yl)isoindolin-1-one]	> 10000 nM
CC(Oc1cc2c(cc1-c1ccc(N3CCOCC3)cc1)C(=O)NC2)c1ccncc1 (stereo not drawn) [Compound 38, 6-(4-morpholinophenyl)-5-(1-(pyridin-4-yl)ethoxy)isoindolin-1-one]	> 10000 nM
Cn1ccc(COc2cc3c(cc2-c2ccc4c(c2)CCO4)C(=O)NC3)n1 [Compound 51, 6-(2,3-dihydrobenzofuran-5-yl)-5-((1-methyl-1H-pyrazol-3-yl)methoxy)isoindolin-1-one]	965 nM
O=C1NCc2cc(Oc3ccncc3)c(-c3ccc(F)cc3F)cc21 [Compound 32, 6-(2,4-difluorophenyl)-5-(pyridin-4-yloxy)isoindolin-1-one]	151 nM
Cc1nn(C)cc1-c1cc2c(cc1OCc1ccn(C)n1)CNC2=O [Compound 45, 6-(1,3-dimethyl-1H-pyrazol-4-yl)-5-((1-methyl-1H-pyrazol-3-yl)methoxy)isoindolin-1-one]	3820 nM
Cc1cc(S(=O)(=O)N2CC(Oc3cc4c(cc3-c3ccc(F)cc3)C(=O)NC4)C2)nn1C [Compound 77, 5-((1-((1,5-dimethyl-1H-pyrazol-3-yl)sulfonyl)azetidin-3-yl)oxy)-6-(4-fluorophenyl)isoindolin-1-one]	2670 nM
CC(Oc1cc2c(cc1-c1ccc(-c3cccs3)cc1)C(=O)NC2)c1ccncc1 (stereo not drawn) [Compound 36, 5-(1-(pyridin-4-yl)ethoxy)-6-(4-(thiophen-2-yl)phenyl)isoindolin-1-one]	> 30000 nM
Cn1ccc(COc2cc3c(cc2-c2ccc(OC(F)(F)F)cc2)C(=O)NC3)n1 [Compound 43, 5-((1-methyl-1H-pyrazol-3-yl)methoxy)-6-(4-(trifluoromethoxy)phenyl)isoindolin-1-one]	2370 nM
O=C1NCc2cc(OC3CN(C(=O)c4cccs4)C3)c(-c3ccc(F)cc3)cc21 [Compound 67, 6-(4-fluorophenyl)-5-((1-(thiophene-2-carbonyl)azetidin-3-yl)oxy)isoindolin-1-one]	> 10000 nM
[2H]C([2H])(Oc1cc2c(cc1-c1cc(F)cc(C#N)c1)C(=O)NC2)c1ccc(C)nc1 [Compound 59, 3-fluoro-5-(6-((6-methylpyridin-3-yl)methoxy-d2)-3-oxoisoindolin-5-yl)benzonitrile]	> 10000 nM
CC(Oc1cc2c(cc1-c1ccc(F)nc1)C(=O)NC2)c1ccncc1 (stereo not drawn) [Compound 40, 6-(6-fluoropyridin-3-yl)-5-(1-(pyridin-4-yl)ethoxy)isoindolin-1-one]	> 10000 nM
Cn1ccc(COc2cc3c(cc2-c2ccc(OC(F)F)cc2F)C(=O)NC3)n1 [Compound 42, 6-(4-(difluoromethoxy)-2-fluorophenyl)-5-((1-methyl-1H-pyrazol-3-yl)methoxy)isoindolin-1-one]	393 nM
O=C1NCc2cc(OC3CN(Cc4cccnc4Cl)C3)c(-c3ccc(F)cc3)cc21 [Compound 82, 5-((1-((2-chloropyridin-3-yl)methyl)azetidin-3-yl)oxy)-6-(4-fluorophenyl)isoindolin-1-one]	2610 nM
[2H]C([2H])(Oc1cc2c(cc1-c1ccc(F)cc1)C(=O)NC2)c1cnn(C)c1 [Compound 30, 6-(4-fluorophenyl)-5-((1-methyl-1H-pyrazol-4-yl)methoxy-d2)isoindolin-1-one]	418 nM
O=C1NCc2cc(OC3CN(C(=O)c4cccc(C(F)(F)F)c4)C3)c(-c3ccc(F)cc3)cc21 [Compound 66, 6-(4-fluorophenyl)-5-((1-(3-(trifluoromethyl)benzoyl)azetidin-3-yl)oxy)isoindolin-1-one]	7540 nM and > 30000 nM
O=C1NCc2cc(OC3CN(S(=O)(=O)c4ccc5cnccc5c4)C3)c(-c3ccc(F)cc3)cc21 [Compound 75, 6-(4-fluorophenyl)-5-((1-(isoquinolin-6-ylsulfonyl)azetidin-3-yl)oxy)isoindolin-1-one]	> 10000 nM
